Assay results from US5876676A, “Preservation of blood platelets” (priority 1996, dated 1999).
Starred links: 1 amine or outer side, 2 acyl side, 3 side chain; linkers in the order of their positions; H or OH if unused. Positions of bridges follow the written chain, without caps; N, C: chain ends. Non-standard residues stand in square brackets, D forms with d. Residues, ends and D or L forms follow the SMILES beside them. Trp(2-yl) = O=C([C@H](Cc1c([*:3])[nH]c2ccccc12)N[*:1])[*:2]; Leu(4R-OH,5-OH) = C[C@](O)(CO)C[C@H](N)C(=O)O; cisHyp = O=C(O)[C@@H]1C[C@H](O)CN1

What was measured:
platelets [1] = test: Morphology and cytoskeleton of Quin-2-loaded platelets, resting or activated (light and electron microscopy); type: cell-based, human
Description: (§1) Human blood from healthy volunteers, drawn into 0.1 vol of Aster-Jandl anticoagulant, was centrifuged at 110 g for 10 min. The platelet-rich plasma was gel-filtered through a Sepharose 2B column equilibrated and eluted with a solution containing 145 mM NaCl, 10 mM Hepes, 10 mM glucose, 0.5 mM Na2 HPO4, 5 mM KCl, 2 mM MgCl2, and 0.3% BSA, pH 7.4 (platelet buffer). 2 U/ml apyrase was added to the platelet suspension and the cells were left standing for 60 min. at 37° C. as previously reported (Hartwig, J., and M. DeSisto, 1991 J. Cell Biol. 112:407-425; Hartwig, J., et al. 1989 J. Cell Biol. 109:1571-1579). To maintain cytosolic calcium at or below its resting level during cell activation, cells were loaded with 30 uM Quin-2AM during minutes 30-60 of the rest period. The effect of Quin-2 was reversed by the addition of 1 mM CaCl2 to the bathing media before centrifugation of the Quin 2-loaded cells onto the coverslips or after the cells had been attached and formed filopodia on the coverslip. Glass-adherent, Quin-2 loaded cells were also treated with 1 mM CaCL2 and 20 nM of the ionophore A23187 for 15 seconds (s) and then detergent permeabilized. In some cases, platelets were used directly from platelet-rich plasma by diluting it 1:20 with platelet buffer containing, in addition, 0.1 mM EGTA and 2 U/ml apyrase. The diluted cells were incubated for 30 min. at 37° C. to insure a resting state.
Platelet suspensions were activated by the addition of 1 U/ml of thrombin (hereafter called thrombin-activated) for 15-30 seconds in studies of nucleation activity. Activation was terminated by permeabilizing the cells as detailed below. Glass activation was used for the morphological studies. Cells were glass-activated by centrifugation onto polylysine-coated glass coverslips at 250 g for 5 min. Coverslips were placed in the bottom of multiwell plates (24 or 96 wells), covered with 0.25 ml of platelet suspension, and centrifuged at 37° C. in a Sorvall HB-6000 centrifuge using multiwell carriers.
Light microscopy and electron microscopy of platelets and cytoskeletons were performed according to standard methods, see e.g., Hartwig, J., 1992, J. Cell Biol. 118(6):1421-1442. The localization of gelsolin in platelets was performed by gold labeling of cytoskeletons from resting and activated cells with antibodies to gelsolin. The affinity-purified goat anti-rabbit macrophage gelsolin IgG was described earlier (Hartwig, J., and M. DeSisto, 1991 J. Cell Biol. 112:407-425; Hartwig, J., and P. Shevlin, 1986 J. Cell Biol. 103:1007-1020).

platelets [2] = test: Nucleation activity in lysates from Quin-2-loaded, thrombin-activated platelets; type: cell-based, human
Description: as §1, with “In some cases, platelets were used directly from platelet-rich plasma by diluting it 1:20 with platelet buffer containing, in addition, 0.1 mM EGTA and 2 U/ml apyrase. The diluted cells were incubated for 30 min. at 37° C. to insure a resting state.” left out
The effect of cell lysates on the rate and extent of pyrene-labeled rabbit skeletal muscle actin was determined as described previously (Hartwig, J., and P. Janmey, 1989 Biochim. Biophys. Acta. 1010:64-71). […] The relative contribution of nuclei with barbed or pointed ends in the cell lysates was determined by adding 2 uM cytochalasin B to the pyrene nucleation assay system. […] To determine if the measured stimulation of actin assembly and its decay with time was due to the growth of pyrene-actin addition onto cellular filaments subject to depolymerization in the diluted lysate, 0.1 uM phalloidin or phallacidin was added to the cell lysates during their preparation to stabilize the filaments. […] However, we also determined that the soluble phase from cells permeabilized with detergent in the presence of EGTA contained calcium dependent nucleation activity. […]

[3] = Quin-2-loaded platelets, glass activated

CNc1ccc2oc(C[C@H]3O[C@@]4(CC[C@H]3C)O[C@H]([C@H](C)C(=O)c3ccc[nH]3)[C@H](C)C[C@H]4C)nc2c1C(=O)O [A23187]
Cytoskeletons of Quin-2-loaded, glass-activated cells after external calcium plus ionophore (platelets [1]; added external calcium (1 mM CaCl2) with 20 nM A23187, within seconds): completely disrupted

COc1cc(N(CC(=O)OCOC(C)=O)CC(=O)OCOC(C)=O)c2nc(COc3cc(C)ccc3N(CC(=O)OCOC(C)=O)CC(=O)OCOC(C)=O)ccc2c1 [Quin-2AM, acetoxymethyl ester of quin-2]
Effect on structure of resting cells and their cytoskeletons (platelets [1]; 30 uM Quin-2AM loading, light microscope): no effect | Swelling, actin filament severing and extension of lamellipodial networks associated with platelet activation (platelets [1]; quin-2AM prior to activation with thrombin): prevented

COc1cc(N(CC(=O)O)CC(=O)O)c2nc(COc3cc(C)ccc3N(CC(=O)O)CC(=O)O)ccc2c1 [Quin-2]
Rearrangements of gelsolin on activation (immunoelectron microscopy) (platelets [1]; Quin-2-loaded and activated cells): did not occur | Filopodia length (platelets [1]; [3]): 2-5 um | Morphology after glass activation (platelets [1]; [3]): extend filopodia but not lamellipodia | activity at 30 µM (platelets [2]; Homo sapiens, Platelet, Quin-2-loaded, thrombin-activated, assayed immediately, read-out: Nucleation activity relative to lysates from untreated and activated cells): 28% | Stability of nucleation activity in detergent lysates (platelets [2]; Quin-2-loaded cells, lysates incubated as long as 10 min before assay): no loss in its activity

C[C@@H]1NC(=O)[C@H](C[C@@](C)(O)CO)NC(=O)[C@@H]2Cc3c([nH]c4ccccc34)SC[C@H](NC(=O)[C@@H]([C@H](C)O)NC1=O)C(=O)N1C[C@@H](O)C[C@H]1C(=O)N[C@@H](C)C(=O)N2 [phalloidin] (cyclo(A[dT]C[cisHyp]A[Trp(2-yl)][Leu(4R-OH,5-OH)]); thioether 3-6)
Effect on nucleation activity in lysates from Quin-2-loaded cells (platelets [2]; 0.1 uM phalloidin in lysates, Quin-2-loaded, thrombin-activated): no effect
